According to US7550438B2, “Methods for production of growth-promoting proteins and peptides for kidney epithelial cells” (The University of Chicago, priority 1997, dated 2009):

How the values were obtained:
[1] = Stability of growth-promoting activity to storage, enzyme, chemicals, heat and solvents; format: physicochemical
Description: For the assay, cells were detached from the dish with a solution of trypsin and an aliquot was counted in a hemocytometer. […] Thus WGF stimulated cell proliferation by 30% in this assay. When high-density, quiescent cultures (3×10^6 cells/55-mm dish) were used to assay mitogenic activity by measuring [^3H]thymidine incorporation into DNA, WGF enhanced DNA synthesis about 60%. To prepare WGF, cells can be scrape-wounded every other day, yet maximal activity will be released into the conditioned medium. WGF is mitogenic for both sparse and confluent cultures of BSC-1 cells, and is stable upon storage at 4° C. to −40° C. for many weeks.
WGF activity was also stable in 0.1% trifluoroacetic acid (TFA) (J. T. Baker, HPLC grade) and isopropanol.

[2] = test system: monkey kidney epithelial cells of the BSC-1 line; assay: Growth-promoting (mitogenic) activity: number of cells in BSC-1 cultures counted four days after addition; format: cell-based, African green monkey
Procedure: For the assay, cells were detached from the dish with a solution of trypsin and an aliquot was counted in a hemocytometer.
Nontransformed monkey kidney epithelial cells of the BSC-1 line were grown to confluence in Dulbecco's modified Eagle's medium containing 1% calf serum and […] in 55-mm culture dishes at 38° C. in a CO2 incubator. When cells achieved a density of about 10^6 per dish, the spent medium was removed and replaced with fresh medium containing 0.5% calf serum and the 14-amino acid peptide (0.5 μg/ml). Additions of each of the mitogenic signals at maximal concentration were made to the culture medium. Four days later the number of cells in each culture was counted in a hemocytometer. Values obtained were the mean of 3 separate cultures.
Nontransformed monkey kidney epithelial cells of the BSC-1 line were grown to confluence in Dulbecco's modified Eagle's medium containing 1% calf serum and 1.6 μM biotin at 38° C. in a CO2 incubator. When cells achieved a density of about 10^6 per dish, the spent medium was removed and replaced with fresh medium containing 0.5% calf serum and different amounts of the two peptides. Four days later the number of cells in each culture was counted. Each value is the mean of 3 separate cultures.
To delineate the sequence of the smallest peptide that could stimulate renal cell growth, synthetic peptides of different lengths were prepared (see below), and purified by reversed-phase HPLC on a C18 column.
The peptide of interest was then purified on a reversed-phase C18 column HPLC as described herein using a gradient of 1-80% acetonitrile in 0.1% trifluroacetic acid (TFA). The purified peptide was then lyophilized to remove the acetonitrile and TFA and the lyophilized powder was weighed, dissolved in buffer and added to the culture medium to measure its effect on the growth of monkey kidney epithelial cells as described herein. […] A value termed the K1/2, was used.

3T3 fibroblasts = assay: Growth of 3T3 fibroblasts; format: cell-based, murine
BSC-1 cells = assay: Appearance or release of WGF growth-promoting activity from BSC-1 cells (scrape wounding, heparinase); format: cell-based, African green monkey; details: confluent monolayer treated with the enzyme
Procedure: None of these agents inhibited cell growth when added to cells of nonwounded cultures. When added to the medium after the appearance of WGF mitogenic activity, neither PMSF nor aprotinin appeared to inhibit the increment in cell proliferation.
Confluent monolayer cultures were mechanically scraped using a 200 μL pipet tip (Continental Laboratory Products, San Diego, Calif.). […] (This process of scraping the cells has been termed “wounding” and has been used for many years as a model system to study repair of corneal abrasions of the eye. In effect, pressure is applied to cells sufficient to disrupt intercellular adhesion). To determine whether kidney epithelial cells released an autocrine growth factor into the medium after wounding, conditioned culture medium was removed from the culture dish after scrape-wounding a monolayer of BSC-1 cells. An aliquot was assayed for any growth-promoting activity on a nonwounded “detector” culture (1.2×10^6 cells per […]).
Treatment of a confluent monolayer of BSC-1 cells with the enzyme heparinase I (Sigma), but not heparinase III (Sigma), releases WGF mitogenic activity from cells into the culture media. However, this seems to deplete WGF, at least temporarily. When cells are first treated with heparinase I, rinsed, the media aspirated, and the monolayer is then scrape-wounded, no growth-promoting activity is detected in the conditioned media.

basic fibroblast growth factor [basic FGF, reference compound]
inhibition of mitogenic activity by 55% acetonitrile/0.1% (TFA) [1]: 90%
concentration equivalent in mitogenic potency to partially-purified WGF [2]: 0.02 ng/mL
stimulation of growth (increase in cell number compared to control at four days) ([2]; agent alone at maximal mitogenic concentration (14-Ser 0.5 μg/ml; EGF, IGF-I 50 ng/ml; acidic FGF 100 pg/ml; basic FGF 1,000 pg/ml; vasopressin 75 pg/ml; K 10.4 mM; Na 180 mM)): 18%
stimulation of growth in the presence of the 14-Ser peptide ([2]; mitogenic signal at maximal concentration plus 14-Ser peptide 0.5 μg/ml, four days): 41%

AQPYPQGNHEA
mitogenic activity on 3T3 fibroblasts (3T3 fibroblasts): did not stimulate growth
combined mitogenic effect with WGF (additivity) ([2]; maximal concentrations, 11-mer with wound conditioned buffer): not additive
mitogenic activity on BSC-1 cells (in words) ([2]; peptide 0.5 to 20 μg/ml, four days): to the same extent as did purified WGF protein
EC50 ([2]; peptide alone, BSC-1 cells, 4 days in culture, read-out: Growth-Stimulation K½): 260 nM

B1: heparinase III: enzyme heparinase III (Sigma) (protein, UniProt Q59289 25-659, looked up)
Heparin-sulfate lyase: QSSSITRKDFDHINLEYSGLEKVNKAVAAGNYDDAAKALLAYYREKSKAREPDFSNAEKPADIRQPIDKVTREMADKALVHQFQPHKGYGYFDYGKDINWQMWPVKDNEVRWQLHRVKWWQAMALVYHATGDEKYAREWVYQYSDWARKNPLGLSQDNDKFVWRPLEVSDRVQSLPPTFSLFVNSPAFTPAFLMEFLNSYHQQADYLSTHYAEQGNHRLFEAQRNLFAGVSFPEFKDSPRWRQTGISVLNTEIKKQVYADGMQFELSPIYHVAAIDIFLKAYGSAKRVNLEKEFPQSYVQTVENMIMALISISLPDYNTPMFGDSWITDKNFRMAQFASWARVFPANQAIKYFATDGKQGKAPNFLSKALSNAGFYTFRSGWDKNATVMVLKASPPGEFHAQPDNGTFELFIKGRNFTPDAGVFVYSGDEAIMKLRNWYRQTRIHSTLTLDNQNMVITKARQNKWETGNNLDVLTYTNPSYPNLDHQRSVLFINKKYFLVIDRAIGEATGNLGVHWQLKEDSNPVFDKTKNRVYTTYRDGNNLMIQSLNADRTSLNEEEGKVSYVYNKELKRPAFVFEKPKKNAGTQNFVSIVYPYDGQKAPEISIRENKGNDFEKGKLNLTLTINGKQQLVLVP
release of WGF mitogenic activity from cells into the culture media (BSC-1 cells): not
